Data as given in the supplement of paper PMC4862054.

Tested on: HDQ-P1
Assay: normalised response (% of control), CellTiter-Glo; higher = more viable cells (100 = DMSO, 0 = benzethonium chloride kill control)
Settings: incubation time: 72 h
How it was run: (§1)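 Plates were normalised with 0.1 % DMSO as 100 and a positive kill control as 0. Breast cancer cell lines in 20 µl suspension had been seeded into 384-well plates with compound at 5 concentrations in 10-fold steps over a compound-specific 10,000-fold range, incubated 72 h, and read for CellTox Green fluorescence (485/520 nm) followed by CellTiter-Glo luminescence. Each value is the normalised signal at a single concentration.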

Compound | normalised response
CC(C)(C)c1cc(NC(=O)Nc2ccc(-c3cn4c(n3)sc3cc(OCCN5CCOCC5)ccc34)cc2)no1 [Quizartinib] (1 nM) | 98.5%
Cc1cc(C(C)Nc2ccccc2)c2nc(N3CCOCC3)cc(=O)n2c1 (configuration not stated) [TGX-221] (10 nM) | 95.4%
C[C@@H]1CCN(C(=O)CC#N)C[C@@H]1N(C)c1ncnc2[nH]ccc12 [Tofacitinib] (0.5 nM) | 103%
COc1ncc(-c2ccc3nccc(-c4ccnnc4)c3c2)cc1NS(=O)(=O)c1ccc(F)cc1F (1 nM) | 81.3%
COC(=O)C[C@](O)(CCCC(C)(C)O)C(=O)O[C@@H]1C(OC)=C[C@]23CCCN2CCc2cc4c(cc2[C@H]13)OCO4 [Omacetaxine] (10 nM) | 96.1%
Cn1cnc2c(F)c(Nc3ccc(Br)cc3F)c(C(=O)NOCCO)cc21 [MEK-162] (1 nM) | 93.2%
Cn1c(=O)c(F)c(Nc2ccc(I)cc2F)c2c(=O)n(C[C@@H](O)CO)cnc21 [TAK-733] (1 nM) | 83.7%
C[C@@H]1C=C2C(=O)O[C@@H]3CC[C@H](C1)[C@]23O [Galiellalactone] (50 nM) | 104%
COC1=C2C[C@@H](C)C[C@H](OC)[C@H](O)[C@@H](C)/C=C(\C)[C@H](OC(N)=O)[C@@H](OC)/C=C\C=C(/C)C(=O)NC(=CC1=O)C2=O [Geldanamycin] (10 nM) | 100%
Cc1cc(C(C)Nc2ccccc2)c2nc(N3CCOCC3)cc(=O)n2c1 (configuration not stated) [TGX-221] (1 nM) | 96.2%
CS(=O)(=O)CCNCc1ccc(-c2ccc3ncnc(Nc4ccc(OCc5cccc(F)c5)c(Cl)c4)c3c2)o1 [Lapatinib] (0.1 nM) | 101%
FC(F)c1nc2ccccc2n1-c1nc(N2CCOCC2)nc(N2CCOCC2)n1 [ZSTK474] (1 nM) | 101%

Tested on: MFM-223
Assay: as above
Settings: incubation time: 72 h
How it was run: as §1

Compound | normalised response
CS(=O)(=O)OCCCCOS(C)(=O)=O [Busulfan] (100 nM) | 112%
CN(c1ccccc1CNc1nc(Nc2ccc3c(c2)CC(=O)N3)ncc1C(F)(F)F)S(C)(=O)=O (1 nM) | 89.5%
CCS(=O)(=O)c1cccc(-c2cc(C(=O)NC3CCN(C)CC3)c(C)c3[nH]c4ncc(C)cc4c23)c1 [TAK-901] (1 nM) | 112%
CC(C)(C)c1cc(NC(=O)Nc2ccc(-c3cn4c(n3)sc3cc(OCCN5CCOCC5)ccc34)cc2)no1 [Quizartinib] (1 nM) | 111%
Cc1cc(C(C)Nc2ccccc2)c2nc(N3CCOCC3)cc(=O)n2c1 (configuration not stated) [TGX-221] (10 nM) | 96.3%
C[C@@H]1CCN(C(=O)CC#N)C[C@@H]1N(C)c1ncnc2[nH]ccc12 [Tofacitinib] (0.5 nM) | 103%
COc1ncc(-c2ccc3nccc(-c4ccnnc4)c3c2)cc1NS(=O)(=O)c1ccc(F)cc1F (1 nM) | 109%
COC(=O)C[C@](O)(CCCC(C)(C)O)C(=O)O[C@@H]1C(OC)=C[C@]23CCCN2CCc2cc4c(cc2[C@H]13)OCO4 [Omacetaxine] (10 nM) | 106%
Cn1cnc2c(F)c(Nc3ccc(Br)cc3F)c(C(=O)NOCCO)cc21 [MEK-162] (1 nM) | 103%
Cn1c(=O)c(F)c(Nc2ccc(I)cc2F)c2c(=O)n(C[C@@H](O)CO)cnc21 [TAK-733] (1 nM) | 113%
C[C@@H]1C=C2C(=O)O[C@@H]3CC[C@H](C1)[C@]23O [Galiellalactone] (50 nM) | 114%
COC1=C2C[C@@H](C)C[C@H](OC)[C@H](O)[C@@H](C)/C=C(\C)[C@H](OC(N)=O)[C@@H](OC)/C=C\C=C(/C)C(=O)NC(=CC1=O)C2=O [Geldanamycin] (10 nM) | 105%
Cc1cc(C(C)Nc2ccccc2)c2nc(N3CCOCC3)cc(=O)n2c1 (configuration not stated) [TGX-221] (1 nM) | 101%
CS(=O)(=O)CCNCc1ccc(-c2ccc3ncnc(Nc4ccc(OCc5cccc(F)c5)c(Cl)c4)c3c2)o1 [Lapatinib] (0.1 nM) | 104%
FC(F)c1nc2ccccc2n1-c1nc(N2CCOCC2)nc(N2CCOCC2)n1 [ZSTK474] (1 nM) | 99%

Tested on: SK-BR-3
Assay: as above
Settings: incubation time: 72 h
How it was run: as §1

Compound | normalised response
CS(=O)(=O)OCCCCOS(C)(=O)=O [Busulfan] (100 nM) | 97.5%
CN(c1ccccc1CNc1nc(Nc2ccc3c(c2)CC(=O)N3)ncc1C(F)(F)F)S(C)(=O)=O (1 nM) | 96%
CCS(=O)(=O)c1cccc(-c2cc(C(=O)NC3CCN(C)CC3)c(C)c3[nH]c4ncc(C)cc4c23)c1 [TAK-901] (1 nM) | 100%
CC(C)(C)c1cc(NC(=O)Nc2ccc(-c3cn4c(n3)sc3cc(OCCN5CCOCC5)ccc34)cc2)no1 [Quizartinib] (1 nM) | 56.6%
Cc1cc(C(C)Nc2ccccc2)c2nc(N3CCOCC3)cc(=O)n2c1 (configuration not stated) [TGX-221] (10 nM) | 93.2%
C[C@@H]1CCN(C(=O)CC#N)C[C@@H]1N(C)c1ncnc2[nH]ccc12 [Tofacitinib] (0.5 nM) | 113%
COc1ncc(-c2ccc3nccc(-c4ccnnc4)c3c2)cc1NS(=O)(=O)c1ccc(F)cc1F (1 nM) | 84.6%
COC(=O)C[C@](O)(CCCC(C)(C)O)C(=O)O[C@@H]1C(OC)=C[C@]23CCCN2CCc2cc4c(cc2[C@H]13)OCO4 [Omacetaxine] (10 nM) | 110%
Cn1cnc2c(F)c(Nc3ccc(Br)cc3F)c(C(=O)NOCCO)cc21 [MEK-162] (1 nM) | 116%
Cn1c(=O)c(F)c(Nc2ccc(I)cc2F)c2c(=O)n(C[C@@H](O)CO)cnc21 [TAK-733] (1 nM) | 104%
C[C@@H]1C=C2C(=O)O[C@@H]3CC[C@H](C1)[C@]23O [Galiellalactone] (50 nM) | 112%
COC1=C2C[C@@H](C)C[C@H](OC)[C@H](O)[C@@H](C)/C=C(\C)[C@H](OC(N)=O)[C@@H](OC)/C=C\C=C(/C)C(=O)NC(=CC1=O)C2=O [Geldanamycin] (10 nM) | 110%
Cc1cc(C(C)Nc2ccccc2)c2nc(N3CCOCC3)cc(=O)n2c1 (configuration not stated) [TGX-221] (1 nM) | 97%
CS(=O)(=O)CCNCc1ccc(-c2ccc3ncnc(Nc4ccc(OCc5cccc(F)c5)c(Cl)c4)c3c2)o1 [Lapatinib] (0.1 nM) | 114%
FC(F)c1nc2ccccc2n1-c1nc(N2CCOCC2)nc(N2CCOCC2)n1 [ZSTK474] (1 nM) | 97.7%

Tested on: CAL-51
Assay: as above
Settings: incubation time: 72 h
How it was run: as §1

Compound | normalised response
CS(=O)(=O)OCCCCOS(C)(=O)=O [Busulfan] (100 nM) | 121%
CN(c1ccccc1CNc1nc(Nc2ccc3c(c2)CC(=O)N3)ncc1C(F)(F)F)S(C)(=O)=O (1 nM) | 96.2%
CCS(=O)(=O)c1cccc(-c2cc(C(=O)NC3CCN(C)CC3)c(C)c3[nH]c4ncc(C)cc4c23)c1 [TAK-901] (1 nM) | 87.8%
CC(C)(C)c1cc(NC(=O)Nc2ccc(-c3cn4c(n3)sc3cc(OCCN5CCOCC5)ccc34)cc2)no1 [Quizartinib] (1 nM) | 112%
Cc1cc(C(C)Nc2ccccc2)c2nc(N3CCOCC3)cc(=O)n2c1 (configuration not stated) [TGX-221] (10 nM) | 96.5%
C[C@@H]1CCN(C(=O)CC#N)C[C@@H]1N(C)c1ncnc2[nH]ccc12 [Tofacitinib] (0.5 nM) | 71.3%
COc1ncc(-c2ccc3nccc(-c4ccnnc4)c3c2)cc1NS(=O)(=O)c1ccc(F)cc1F (1 nM) | 111%
COC(=O)C[C@](O)(CCCC(C)(C)O)C(=O)O[C@@H]1C(OC)=C[C@]23CCCN2CCc2cc4c(cc2[C@H]13)OCO4 [Omacetaxine] (10 nM) | 94%
Cn1cnc2c(F)c(Nc3ccc(Br)cc3F)c(C(=O)NOCCO)cc21 [MEK-162] (1 nM) | 108%
Cn1c(=O)c(F)c(Nc2ccc(I)cc2F)c2c(=O)n(C[C@@H](O)CO)cnc21 [TAK-733] (1 nM) | 86.9%
C[C@@H]1C=C2C(=O)O[C@@H]3CC[C@H](C1)[C@]23O [Galiellalactone] (50 nM) | 101%
COC1=C2C[C@@H](C)C[C@H](OC)[C@H](O)[C@@H](C)/C=C(\C)[C@H](OC(N)=O)[C@@H](OC)/C=C\C=C(/C)C(=O)NC(=CC1=O)C2=O [Geldanamycin] (10 nM) | 112%
Cc1cc(C(C)Nc2ccccc2)c2nc(N3CCOCC3)cc(=O)n2c1 (configuration not stated) [TGX-221] (1 nM) | 109%
CS(=O)(=O)CCNCc1ccc(-c2ccc3ncnc(Nc4ccc(OCc5cccc(F)c5)c(Cl)c4)c3c2)o1 [Lapatinib] (0.1 nM) | 110%
FC(F)c1nc2ccccc2n1-c1nc(N2CCOCC2)nc(N2CCOCC2)n1 [ZSTK474] (1 nM) | 81.5%

Tested on: CAL-148
Assay: as above
Settings: incubation time: 72 h
How it was run: as §1

Compound | normalised response
CS(=O)(=O)OCCCCOS(C)(=O)=O [Busulfan] (100 nM) | 101%
CN(c1ccccc1CNc1nc(Nc2ccc3c(c2)CC(=O)N3)ncc1C(F)(F)F)S(C)(=O)=O (1 nM) | 91.6%
CCS(=O)(=O)c1cccc(-c2cc(C(=O)NC3CCN(C)CC3)c(C)c3[nH]c4ncc(C)cc4c23)c1 [TAK-901] (1 nM) | 108%
CC(C)(C)c1cc(NC(=O)Nc2ccc(-c3cn4c(n3)sc3cc(OCCN5CCOCC5)ccc34)cc2)no1 [Quizartinib] (1 nM) | 109%
Cc1cc(C(C)Nc2ccccc2)c2nc(N3CCOCC3)cc(=O)n2c1 (configuration not stated) [TGX-221] (10 nM) | 95%
C[C@@H]1CCN(C(=O)CC#N)C[C@@H]1N(C)c1ncnc2[nH]ccc12 [Tofacitinib] (0.5 nM) | 113%
COc1ncc(-c2ccc3nccc(-c4ccnnc4)c3c2)cc1NS(=O)(=O)c1ccc(F)cc1F (1 nM) | 105%
COC(=O)C[C@](O)(CCCC(C)(C)O)C(=O)O[C@@H]1C(OC)=C[C@]23CCCN2CCc2cc4c(cc2[C@H]13)OCO4 [Omacetaxine] (10 nM) | 115%
Cn1cnc2c(F)c(Nc3ccc(Br)cc3F)c(C(=O)NOCCO)cc21 [MEK-162] (1 nM) | 102%
Cn1c(=O)c(F)c(Nc2ccc(I)cc2F)c2c(=O)n(C[C@@H](O)CO)cnc21 [TAK-733] (1 nM) | 105%
C[C@@H]1C=C2C(=O)O[C@@H]3CC[C@H](C1)[C@]23O [Galiellalactone] (50 nM) | 111%
COC1=C2C[C@@H](C)C[C@H](OC)[C@H](O)[C@@H](C)/C=C(\C)[C@H](OC(N)=O)[C@@H](OC)/C=C\C=C(/C)C(=O)NC(=CC1=O)C2=O [Geldanamycin] (10 nM) | 113%
Cc1cc(C(C)Nc2ccccc2)c2nc(N3CCOCC3)cc(=O)n2c1 (configuration not stated) [TGX-221] (1 nM) | 95.5%
CS(=O)(=O)CCNCc1ccc(-c2ccc3ncnc(Nc4ccc(OCc5cccc(F)c5)c(Cl)c4)c3c2)o1 [Lapatinib] (0.1 nM) | 110%
FC(F)c1nc2ccccc2n1-c1nc(N2CCOCC2)nc(N2CCOCC2)n1 [ZSTK474] (1 nM) | 96.8%
